Experimental data from US7112586B2, “Substituted diamine derivatives useful as motilin antagonists” (Ortho-McNeil Pharmaceutical, Inc., priority 2000, dated 2006).

Columns and labels:
[1] = target: T1, Motilin Receptor (Oryctolagus cuniculus, UniProt G1T803); experiment: Motilin receptor binding, rabbit colon membranes, 125I porcine motilin; parameters: Rabbit Colon % Inh / inhibition / % Inh (Rabbit colon): dose or concentration left out as unconfirmed; settings: rabbit colon membranes; for inhibition: read-out: Rabbit Colon % Inh; for IC50: read-out: Rabbit Colon IC50
T1 construct: The muscle tissue was homogenized in 10 volumes of 50 mM Tris-Cl; from tissue; host or cells: rabbit colon smooth muscle, crude membrane homogenate

[2] = test system: motilin induced contraction; experiment: Rabbit tissue bath procedure: inhibition of motilin induced contraction of duodenum segments; parameters: species or system New Zealand White rabbit; settings: 3 nM porcine motilin induced contraction, read-out: Tissues IC50
Method: Rabbit Tissue Bath Procedure
One New Zealand White rabbit (Covance) of either sex was euthanized with an IV injection of Sleepaway. The duodenum was quickly excised, the lumen rinsed with saline to clean, and the tissue placed in cold, aerated (95% O2–5% CO2) Tyrodes buffer (NaCl 136.9 mM, KCl 2.7 mM, CaCl2 1.8 mM, MgCl2 1.04 mM, NaH2PO4 0.42 mM, NaHCO3 11.9 mM, Glucose 5.55 mM, pH 7.4). The duodenum, being kept moist at all times, was cleaned of any excess mesenteric tissue, and then cut into 3 cm segments starting at the proximal end. Sixteen tissue segments were usually prepared from each duodenum. These segments were tied on both ends with 3-0 silk suture (Ethicon). One end of the tissue was attached to an S-hook on a custom made glass support rod (Crown Glass Co., Somerville) and the rod plus tissue were placed in a 15 ml isolated tissue bath (Radnoti). The other end of the glass rod was attached to a Grass Force Displacement Transducer FT03. The tissue was maintained in room temperature Tyrodes buffer pH 7.4 and continually gassed with 95% O2— 5% CO2. The tissues were adjusted to 1.0 g resting tension and maintained at that tension throughout the equilibration period. An Ml2 Tissue Bath Computer was used to record and analyze data.
The tissues were washed twice during a 30 minute equilibration period and readjusted to 1 g resting tension as necessary. After equilibration the tissues were challenged with 3 μM Carbachol (Carbamoylcholine Chloride-Sigma). After maximal contraction was attained, the tissues were washed 3 times with Tyrodes. The tissues were allowed a 20 minute resting/equilibration period, during which time they were washed once and readjusted to 1 g resting tension. The tissues were challenged a second time with 3 μM Carbachol, and this contraction was considered as maximal, or 100% contraction. The tissues were washed 3 times, equilibrated for 10 minutes, washed again and readjusted to 1 g resting tension. Vehicle or test compound in 30% DMSO-50 mM HEPES was added directly to the bath and the tissues were incubated for 20 minutes. Test compounds and vehicle were run in duplicate.
The percent inhibition by test compound of the motilin induced contraction was calculated by first determining the ratio of the vehicle contractions with Motilin compared to the Carbachol contractions. This Tissue Adjustment Factor (TAF) was used to determine the value for the potential uninhibited contraction with Motilin for each tissue. The percent inhibition was then determined by dividing the actual Motilin contraction in treated tissues by the potential uninhibited contraction and subtracting this number from 1. IC50 values were determined by graphing results with Kaleidograph graphing program.

T1 sequence (G1T803 1-400): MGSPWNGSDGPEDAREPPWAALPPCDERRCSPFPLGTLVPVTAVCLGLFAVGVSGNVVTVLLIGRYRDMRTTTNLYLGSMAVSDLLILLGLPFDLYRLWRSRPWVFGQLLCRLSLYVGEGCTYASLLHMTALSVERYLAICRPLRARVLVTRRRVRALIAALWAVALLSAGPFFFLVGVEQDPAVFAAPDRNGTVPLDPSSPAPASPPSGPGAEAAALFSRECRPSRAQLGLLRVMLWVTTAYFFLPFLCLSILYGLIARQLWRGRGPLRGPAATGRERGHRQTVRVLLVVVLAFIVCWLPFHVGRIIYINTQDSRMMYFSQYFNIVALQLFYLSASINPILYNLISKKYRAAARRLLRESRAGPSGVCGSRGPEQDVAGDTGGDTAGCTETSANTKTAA

inhibition [1] [%]	IC50 [1] [µM]	IC50 [2] [µM]	Rabbit Colon % Inh [1] [%]	Structure (SMILES)
80	0.035	0.027	–	O=C(Nc1ccccc1)N(CC1CCCC(N(Cc2cccc([N+](=O)[O-])c2)C(=O)C(Cl)(Cl)Cl)C1)c1cccc(OCCN2CCOCC2)c1 (stereo not shown) [compound 65]
95	0.49	> 0.3	–	O=C(c1ccc(F)cc1)N(CC1CCCC(N(Cc2ccccn2)C(=O)C(Cl)(Cl)Cl)C1)c1cccc(OCCN2CCOCC2)c1 (stereo not shown) [compound 90]
100	0.09	0.0205	–	O=C(c1ccc(F)cc1)N(CC1CCCC(N(Cc2cccc([N+](=O)[O-])c2)C(=O)C(Cl)(Cl)Cl)C1)c1cccc(OCCN2CCOCC2)c1 (stereo not shown) [compound 93]
71	1.68	> 0.03	–	O=C(c1ccc(F)cc1)N(CC1CCCC(N(Cc2cccc(C(F)(F)F)c2)C(=O)C(Cl)(Cl)Cl)C1)c1cccc(OCCN2CCOCC2)c1 (stereo not shown) [compound 96]
80	0.39	0.03	–	CC(C)(C)C(=O)N(Cc1cccc(Cl)c1)C1CCCC(CN(C(=O)c2ccc(F)cc2)c2cccc(OCCN3CCOCC3)c2)C1 (stereo not shown) [compound 105]
89	0.081	0.03	–	O=C(CCCC(=O)N1CCc2ccccc2C1c1ccccc1)N(Cc1ccc(F)cc1)c1cccc(OCCN2CCOCC2)c1 (stereo not shown) [compound 153]
85	0.178	0.021	–	O=C(CCCC(=O)N(Cc1ccc(F)cc1)c1cccc(OCCN2CCOCC2)c1)N(CCc1ccccc1)Cc1cccc(Cl)c1 [compound 162]
85	0.174	0.019	–	O=C(CCC(=O)N(Cc1ccc(F)cc1)c1cccc(OCCN2CCOCC2)c1)N(CCc1ccccc1)Cc1cccc(Cl)c1 [compound 163]
84	0.194	0.048	–	O=C(CCC(=O)N(Cc1cccc(F)c1)c1cccc(OCCN2CCOCC2)c1)N(CCc1ccccc1)Cc1ccccc1 [compound 164]
97	0.046	0.24	–	O=C(CCCC(=O)N(Cc1cccc(F)c1)c1cccc(OCCN2CCOCC2)c1)N(CCc1ccccc1)Cc1ccccc1 [compound 169]
81	0.163	0.185	–	O=C(CCCC(=O)N(Cc1ccccc1F)c1cccc(OCCN2CCOCC2)c1)N(CCc1ccccc1)Cc1ccccc1 [compound 170]
63	0.462	0.23	–	COc1ccc(CN(C(=O)CCCC(=O)N(CCc2ccccc2)Cc2ccccc2)c2cccc(OCCN3CCOCC3)c2)cc1 [compound 171]
84	0.29	0.28	–	O=C(CCCC(=O)N(Cc1ccc(Cl)cc1)c1cccc(OCCN2CCOCC2)c1)N(CCc1ccccc1)Cc1ccccc1 [compound 173]
100	0.07	0.015	–	CCN(CC)CCOc1cccc(N(Cc2ccc(F)cc2)C(=O)CCCC(=O)N(CCc2ccccc2)Cc2ccccc2)c1 [compound 178]
85	0.24	0.023	–	O=C(CCCC(=O)N(Cc1ccc(F)cc1)c1cccc(OCCN2CCNCC2)c1)N(CCc1ccccc1)Cc1ccccc1 [compound 179]
99	0.014	0.011	–	O=C(CCCC(=O)N(Cc1ccc(F)cc1)c1cccc(OCCN2CCCC2)c1)N(CCc1ccccc1)Cc1ccccc1 [compound 180]
100	0.093	0.012	–	CN(C)CCOc1cccc(N(Cc2ccc(F)cc2)C(=O)CCCC(=O)N(CCc2ccccc2)Cc2ccccc2)c1 [compound 181]
94	0.022	0.053	–	O=C(CCCC(=O)N(Cc1ccc(F)cc1)c1cccc(OCCN2CCCCC2)c1)N(CCc1ccccc1)Cc1ccccc1 [compound 182]
100	0.247	0.092	–	O=C(CCCC(=O)N(Cc1ccc(F)cc1)c1cccc(OCCCN2CCCCC2)c1)N(CCc1ccccc1)Cc1ccccc1 [compound 188]
100	0.006	0.004	–	Cc1c(OCCN2CCCC2)cccc1N(Cc1ccc(F)cc1)C(=O)CCCC(=O)N(CCc1ccccc1)Cc1ccccc1 [compound 196]
85	0.009	0.0076	–	O=C(CCCC(=O)N(Cc1ccc(F)cc1)c1cccc(OCCN2CCCC2)c1)N(CCc1ccccc1)Cc1cccc([N+](=O)[O-])c1 [compound 197]

inhibition [1] [%]	IC50 [1] [µM]	IC50 [2] [µM]	Rabbit Colon % Inh [1] [%]	Structure (SMILES)
93	0.057	0.0168	–	O=C(CCCC(=O)N(Cc1ccc(F)cc1)c1cccc(OCCN2CCCC2)c1)N(CCc1ccccn1)Cc1cccc(Cl)c1 [compound 201]
100	0.33	0.23	–	O=C(CCCC(=O)N(Cc1ccc(F)cc1)c1cccc(OCCN2CCCC2)c1)N(CCc1ccc(Cl)cc1)Cc1cccc(Cl)c1 [compound 202]
89	0.029	0.003	–	O=C(CCCC(=O)N(Cc1ccc(F)cc1)c1cccc(OCCN2CCCC2)c1)N(CCc1cccs1)Cc1cccc(Cl)c1 [compound 204]
84	0.059	0.021	–	Cc1c(OCCN2CCCC2)cccc1N(CC1CCCC(N(Cc2cccc(Cl)c2)C(=O)C(Cl)(Cl)Cl)C1)C(=O)c1ccc(F)cc1 (stereo not shown) [compound 209]
90	0.086	0.024	–	Cc1c(OCCN2CCCC2)cccc1N(CC1CCCC(N(Cc2ccccc2)C(=O)C(Cl)(Cl)Cl)C1)C(=O)c1ccc(F)cc1 (stereo not shown) [compound 210]
–	–	0.024	–	CC(C)(C)C(=O)N(Cc1ccccc1)[C@@H]1CCC[C@H](CN(C(=O)c2ccc(F)cc2)c2cccc(OCCN3CCCC3)c2)C1 [compound 214]
–	–	–	22	O=C(c1ccc(F)cc1)N(CC1CCCC(N(Cc2cccc(Cl)c2)C(=O)Cc2ccc(F)cc2)C1)c1cccc(OCCN2CCOCC2)c1 (stereo not shown) [compound 249]
–	–	–	0	CC(C)(C)c1ccc2c(c1)C(=O)N(C1CCCC(CN(C(=O)c3ccc(F)cc3)c3cccc(OCCN4CCOCC4)c3)C1)C2=O (stereo not shown) [compound 250]
–	–	–	0	O=C(c1ccc(F)cc1)N(CC1CCCC(N2C(=O)c3ccc(F)cc3C2=O)C1)c1cccc(OCCN2CCOCC2)c1 (stereo not shown) [compound 251]
–	–	–	15	O=C(c1ccc(F)cc1)N(CC1CCCC(N2C(=O)c3ccc4ccccc4c3C2=O)C1)c1cccc(OCCN2CCOCC2)c1 (stereo not shown) [compound 252]
–	–	–	30	Cc1ccc2c(c1)C(=O)N(C1CCCC(CN(C(=O)c3ccc(F)cc3)c3cccc(OCCN4CCOCC4)c3)C1)C2=O (stereo not shown) [compound 253]
–	–	–	25	O=C(c1ccc(F)cc1)N(CC1CCCC(N2C(=O)CC3(CCCC3)CC2=O)C1)c1cccc(OCCN2CCOCC2)c1 (stereo not shown) [compound 254]
–	–	–	22	O=C(c1ccc(F)cc1)N(CC1CCCC(N2C(=O)c3cc(Cl)c(Cl)cc3C2=O)C1)c1cccc(OCCN2CCOCC2)c1 (stereo not shown) [compound 255]
–	–	–	27	Cc1ccc2c(c1)C(=O)N(C1CCCC(CN(C(=O)c3ccc(F)cc3)c3cccc(OCCN4CCOCC4)c3)C1)C2=O (stereo not shown) [compound 256]
–	–	–	0	O=C(c1ccc(F)cc1)N(CC1CCCC(N2C(=O)c3ccccc3C2=O)C1)c1cccc(OCCN2CCOCC2)c1 (stereo not shown) [compound 257]
–	–	–	34	CC1(C)CC(=O)N(C2CCCC(CN(C(=O)c3ccc(F)cc3)c3cccc(OCCN4CCOCC4)c3)C2)C(=O)C1 (stereo not shown) [compound 258]
–	–	–	17	O=C(c1ccc(F)cc1)N(CC1CCCC(N2C(=O)c3ccc(Br)cc3C2=O)C1)c1cccc(OCCN2CCOCC2)c1 (stereo not shown) [compound 259]
–	–	–	30	CC(=O)Oc1ccc2c(c1)C(=O)N(C1CCCC(CN(C(=O)c3ccc(F)cc3)c3cccc(OCCN4CCOCC4)c3)C1)C2=O (stereo not shown) [compound 260]
–	–	–	0	O=C(c1ccc(F)cc1)N(CC1CCCC(N2C(=O)c3ccc4ccc(F)cc4c3C2=O)C1)c1cccc(OCCN2CCOCC2)c1 (stereo not shown) [compound 261]
–	–	–	18	O=C(c1ccc(F)cc1)N(CC1CCCC(N2C(=O)C3CC3C2=O)C1)c1cccc(OCCN2CCOCC2)c1 (stereo not shown) [compound 262]
–	–	–	11	O=C(c1ccc(F)cc1)N(CC1CCCC(N2C(=O)c3c(Cl)ccc(Cl)c3C2=O)C1)c1cccc(OCCN2CCOCC2)c1 (stereo not shown) [compound 263]
